Read-outs that look alike come from different tables or passages of the source.
How the values were obtained:
Type in all cases: cell-based
C-33A = test: CCK-8 antiproliferative assay, C-33A; details: read-out: IC50 C-33A
Description: (§1) Cells were seeded into 96-well plates at a density of 2.5–6 × 10^3 cells per well and incubated for 24 h. They were then treated with a series of eight concentrations of the test compounds (e.g., from 100 to 0.78125 μM or from 2 to 0.015625 μM, prepared by twofold serial dilution) for 48 h. After treatment, the medium was removed and replaced with 100 μL of 10% CCK-8 solution (diluted in fresh medium). Following incubation in the dark for 1–2 h, absorbance at 450 nm was measured using a microplate reader. The half-maximal inhibitory concentration (IC50) was calculated using SPSS software. Each concentration was tested in six replicate wells, and the entire experiment was performed in three independent biological replicates.
(§2) IC50 values were derived by nonlinear regression (SPSS 26). All data are presented as mean ± SD from at least three independent biological replicates (n ≥ 3). Differences were assessed by Student’s t-test (two groups) or one-way ANOVA with Tukey’s post hoc test (multiple groups). […] Statistical significance was set at p < 0.05.

H8 = test: CCK-8 cytotoxicity, normal cervical epithelial cells H8; details: for IC50: read-out: IC50 H8; for toxicity to H8 cells in words: normal cervical epithelial cells
Description: as §1, §2

HeLa = test: CCK-8 antiproliferative assay, HeLa
Description: as §1, §2

SiHa = test: CCK-8 antiproliferative assay, SiHa; details: read-out: IC50 SiHa
Description: as §1, §2

GPX4 = test: Western blot, GPX4 expression in HeLa cells; details: Fer-1 5 μmol/L cotreated with B1, HeLa
HeLa cells [1] = test: MDA assay kit; details: Fer-1 5 μmol/L cotreated with 0.22 μmol/L B1, HeLa
Description: MDA levels in HeLa cells were detected using an MDA assay kit ([Tsikas et al., 2017]).
After 24 h of treatment, cells were collected and washed twice with PBS for subsequent analysis.

HeLa cells [2] = test: Fe2+ assay kit; details: Fer-1 5 μmol/L cotreated with 0.22 μmol/L B1, HeLa
Description: Intracellular ferrous iron (Fe^2+) levels in HeLa cells were measured using an Fe^2+ assay kit.
(§3) After 24 h of treatment, cells were collected and washed twice with PBS for subsequent analysis. […] Subsequent procedures were performed strictly according to the manufacturer’s instructions of the respective kits: MDA assay kit (Servicebio, Cat# GM1134), Fe^2+ colorimetric assay kit (Servicebio, Cat# GM3052), and reduced GSH assay kit (Servicebio, Cat# GM1139).

SLC7A11 = test: Western blot, SLC7A11 expression in HeLa cells; details: Fer-1 5 μmol/L cotreated with B1, HeLa
HeLa cells [3] = test: GSH assay kit; details: Fer-1 5 μmol/L cotreated with 0.22 μmol/L B1, HeLa
Description: Intracellular GSH levels were measured using a GSH assay kit.
as §3

[4] = Homo sapiens, C-33-A, CCK-8, 48 h, Table 1
[5] = Epithelial cell, CCK-8, 48 h, normal cells, Table 1
[6] = Homo sapiens, HeLa, CCK-8, 48 h, Table 1, read-out: IC50 HeLa
[7] = Homo sapiens, SiHa, CCK-8, 48 h, Table 1
[8] = CCK-8, 48 h, normal cells, Table 1
[9] = CCK-8, 48 h, Table 1, read-out: IC50 HeLa
[10] = Homo sapiens, HeLa, 48 h, read-out: IC50 HeLa

Row | IC50 (HeLa; [10]) | SMILES | IC50 (C-33A; Homo sapiens, C-33-A, 48 h) | IC50 (H8; Epithelial cell, 48 h) | IC50 (SiHa; Homo sapiens, SiHa, 48 h) | other results
1 | > 100 µM | O=C(/C=C/c1ccc(N2CCCC2)cc1)c1ccc(OC(F)(F)F)cc1 [Compound B7] | > 100 µM | > 100 µM | > 100 µM | –
2 | 9.3 ± 0.57 µM | COc1ccc(OC)c(C(=O)/C=C/c2ccc(N3CCCC3)cc2)c1 [Compound C1] | 13.8 ± 0.45 µM | 27.2 ± 2.33 µM | 9.92 ± 0.67 µM | IC50 (HeLa; Homo sapiens, HeLa): 27.1 µM
3 | 27.1 ± 0.59 µM | O=C(/C=C/c1ccc(N2CCCC2)cc1)c1cc(F)ccc1F [Compound C2] | 44.1 ± 1.99 µM | 35.1 ± 0.95 µM | 26.4 ± 1.11 µM | IC50 (HeLa; Homo sapiens, HeLa): 9.3 µM
4 | 5.25 ± 0.1 µM | COc1ccc(F)cc1/C=C/C(=O)c1ccc(N2CCCC2)cc1 [Compound D1] | 20.9 ± 1.03 µM | 19.2 ± 1.08 µM | 5.44 ± 0.23 µM | –
5 | 10.8 ± 0.37 µM | COc1ccc(Br)cc1/C=C/C(=O)c1ccc(N2CCCC2)cc1 [Compound D2] | 49.8 ± 2.93 µM | 40 ± 0.55 µM | 11.55 ± 0.06 µM | –
6 | 8.17 ± 0.46 µM | COc1ccc(Cl)cc1/C=C/C(=O)c1ccc(N2CCCC2)cc1 [Compound D3] | 34.2 ± 1.3 µM | 22.6 ± 0.32 µM | 10.9 ± 0.38 µM | –
7 | 4.09 ± 0.24 µM | O=C(/C=C/c1ccccc1OC(F)(F)F)c1ccc(N2CCCC2)cc1 [Compound D4] | 33 ± 2.38 µM | > 100 µM | 9.28 ± 0.33 µM | –
8 | 32 ± 1.28 µM | O=C(/C=C/c1cccc(OC(F)(F)F)c1)c1ccc(N2CCCC2)cc1 [Compound D5] | > 100 µM | > 100 µM | 44.4 ± 1.64 µM | –
9 | > 100 µM | O=C(/C=C/c1ccc(OC(F)(F)F)cc1)c1ccc(N2CCCC2)cc1 [Compound D6] | > 100 µM | > 100 µM | 77.3 ± 2.13 µM | –

The next lines start with the molecule.

Row | SMILES | IC50 (HeLa; [10]) | IC50 (C-33A; Homo sapiens, C-33-A, 48 h) | IC50 (H8; Epithelial cell, 48 h) | IC50 (SiHa; Homo sapiens, SiHa, 48 h) | other results
10 | O=C(/C=C/c1ccccc1)c1ccccc1 [Chalcone, reference compound] | – | – | – | – | IC50 (C-33A; [4]): 58.7 ± 1.05 µM; IC50 (H8; [5]): 38.6 ± 1.64 µM; IC50 (HeLa; [6]): 63.9 ± 2.85 µM; IC50 (SiHa; [7]): 69.7 ± 1.67 µM
11 | N.N.[Cl][Pt][Cl] [Cisplatin, reference compound] | – | – | – | – | IC50 (C-33A; CCK-8, 48 h, Table 1): 12.7 ± 1.09 µM; IC50 (H8; [8]): 25.6 ± 1.32 µM; IC50 (HeLa; [9]): 18.23 ± 0.11 µM; IC50 (SiHa; CCK-8, 48 h, Table 1): 37 ± 1.54 µM
12 | COc1ccccc1C(=O)/C=C/c1ccc(N2CCCC2)cc1 [Compound A1] | 3.04 ± 0.03 µM | 4.79 ± 0.19 µM | 61.3 ± 1.34 µM | 2.93 ± 0.21 µM | toxicity to H8 cells in words (H8): low toxicity
13 | COc1ccc(C(=O)/C=C/c2ccc(N3CCCC3)cc2)c(OC)c1 [Compound A2] | 16.7 ± 0.65 µM | 17.9 ± 0.55 µM | 74 ± 1.05 µM | 18.3 ± 0.73 µM | –
14 | COc1cccc(OC)c1C(=O)/C=C/c1ccc(N2CCCC2)cc1 [Compound A3] | 31.5 ± 1.46 µM | > 100 µM | > 100 µM | 64.44 ± 0.57 µM | –
15 | COc1ccc(C(=O)/C=C/c2ccc(N3CCCC3)cc2)c(OC)c1OC [Compound A4] | 15.7 ± 0.38 µM | 21.3 ± 1.02 µM | 81 ± 1.03 µM | 7.78 ± 0.24 µM | –
16 | O=C(/C=C/c1ccc(N2CCCC2)cc1)c1ccccc1C(F)(F)F [Compound A5] | 13.6 ± 0.26 µM | 36.69 ± 0.22 µM | 78.7 ± 1.41 µM | 38 ± 0.74 µM | –
17 | O=C(/C=C/c1ccc(N2CCCC2)cc1)c1cccc(C(F)(F)F)c1 [Compound A6] | 31.8 ± 1.45 µM | 35.1 ± 0.37 µM | 86.4 ± 3.17 µM | 34.5 ± 0.59 µM | IC50 (HeLa; Homo sapiens, HeLa): > 100 µM
18 | Cc1cccc(C(=O)/C=C/c2ccc(N3CCCC3)cc2)c1 [Compound A7] | 27.6 ± 2.23 µM | 37.2 ± 0.19 µM | 91.6 ± 3.28 µM | 16.41 ± 0.13 µM | –
19 | O=C(/C=C/c1ccc(N2CCCC2)cc1)c1ccc(C(F)(F)F)cc1 [Compound A8] | > 100 µM | > 100 µM | > 100 µM | > 100 µM | –
20 | O=C(/C=C/c1ccc(N2CCCC2)cc1)c1ccc(Cl)c(Cl)c1Cl [Compound A9] | – | – | – | – | IC50 (C-33A; [4]): > 100 µM; IC50 (H8; [5]): > 100 µM; IC50 (HeLa; [6]): > 100 µM; IC50 (SiHa; [7]): 90.5 ± 3.38 µM
21 | COc1ccc(F)cc1C(=O)/C=C/c1ccc(N2CCCC2)cc1 [Compound B1] | 0.22 ± 0.01 µM | 0.95 ± 0.02 µM | 45.8 ± 1.61 µM | 0.24 ± 0.03 µM | toxicity to H8 cells in words (H8): low toxicity; IC50 (HeLa; Homo sapiens, HeLa, read-out: IC50 HeLa): ~0.22 µM; IC50 (SiHa; Homo sapiens, SiHa): ~0.24 µM
22 | COc1ccc(Br)cc1C(=O)/C=C/c1ccc(N2CCCC2)cc1 [Compound B2] | 1.09 ± 0.05 µM | 4.4 ± 0.11 µM | 56.8 ± 0.75 µM | 1.35 ± 0.13 µM | –
23 | COc1ccc(Cl)cc1C(=O)/C=C/c1ccc(N2CCCC2)cc1 [Compound B3] | 1.59 ± 0.08 µM | 4.29 ± 0.15 µM | 57 ± 2.47 µM | 2.17 ± 0.02 µM | –
24 | COc1ccccc1C(=O)/C(C)=C/c1ccc(N2CCCC2)cc1 [Compound B4] | – | – | – | – | IC50 (C-33A; [4]): > 100 µM; IC50 (H8; [5]): > 100 µM; IC50 (HeLa; [6]): 84.8 ± 2.69 µM; IC50 (SiHa; [7]): 44.7 ± 0.78 µM
25 | O=C(/C=C/c1ccc(N2CCCC2)cc1)c1ccccc1OC(F)(F)F [Compound B5] | 0.9 ± 0.02 µM | 5.93 ± 0.07 µM | 76.9 ± 3.87 µM | 0.91 ± 0.03 µM | –
26 | O=C(/C=C/c1ccc(N2CCCC2)cc1)c1cccc(OC(F)(F)F)c1 [Compound B6] | > 100 µM | > 100 µM | > 100 µM | 49.5 ± 1.4 µM | –
27 | CCOc1ccccc1-n1c(C(C)N2CCN(C(=O)COc3ccc(Cl)cc3)CC2)nc2ccccc2c1=O (stereo not shown) [Erastin, reference compound] | – | – | – | – | IC50 (HeLa; Homo sapiens, HeLa, CCK-8, Table 3, ferroptosis inducer/inhibitor comparison, read-out: IC50 HeLa): 17.2 ± 0.53 µM
28 | CCOC(=O)c1ccc(NC2CCCCC2)c(N)c1 [Ferrostatin-1, ferrostatin-1] | – | – | – | – | GPX4 protein expression level on cotreatment (GPX4): increased; MDA levels on cotreatment (HeLa cells [1]): reduced; Fe^2+ levels on cotreatment (HeLa cells [2]): reduced; SLC7A11 protein expression level on cotreatment (SLC7A11): increased; intracellular GSH levels on cotreatment (HeLa cells [3]): increased
29 | COc1ccc(C2=N[C@@H](c3ccc(Cl)cc3)[C@@H](c3ccc(Cl)cc3)N2C(=O)N2CCNC(=O)C2)c(OC(C)C)c1 [Nutlin-3a, reference compound] | – | – | – | – | IC50 (C-33A; CCK-8, 48 h, Table 1): 57 ± 2.81 µM; IC50 (H8; [8]): 45.5 ± 2.11 µM; IC50 (HeLa; [9]): 61.3 ± 1.42 µM; IC50 (SiHa; CCK-8, 48 h, Table 1): 56.6 ± 2.2 µM

— publication PMC12921483 (Frontiers in Pharmacology, 2026)
